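These data come from cells grown in 96-well plates and exposed to compound for 48 hours at five concentrations. At the GI50, growth is halved. Definition used: TGI = concentration required for complete inhibition of growth.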
What was measured:
Assay in all cases: NCI anticancer screen, dose series, 48 h
[1] = system: SNB-75 CNS
[2] = system: T-47D breast
[3] = system: SF-268 CNS
[4] = system: HS 578T breast
[5] = system: OVCAR-8 ovarian
[6] = system: NCI-H460 lung
[7] = system: HCC-2998 colon
[8] = system: LOX IMVI melanoma
[9] = system: NCI-H522 lung
[10] = system: MCF7 breast
[11] = system: UO-31 renal
[12] = system: HOP-92 NSCLC
[13] = system: NCI-H226 lung
[14] = system: SF-539 CNS
[15] = system: SK-OV-3 ovarian
[16] = system: OVCAR-3 ovarian
[17] = system: PC-3 prostate
[18] = system: UACC-62 melanoma
[19] = system: SR leukemia
[20] = system: HT29 colon
[21] = system: RPMI-8226 leukemia
[22] = system: SK-MEL-5 melanoma
[23] = system: TK-10 renal
[24] = system: CAKI-1 renal
[25] = system: HCT-116 colon
[26] = system: NCI-H23 lung
[27] = system: U251 CNS
[28] = system: EKVX NSCLC
[29] = system: UACC-257 melanoma
[30] = system: IGROV1 ovarian
[31] = system: MDA-MB-468 breast
[32] = system: A549 NSCLC
[33] = system: HOP-62 NSCLC
[34] = system: SN12C renal
[35] = system: COLO 205 colon
[36] = system: M14 melanoma
[37] = system: MDA-MB-231 breast
[38] = system: K-562 leukemia
[39] = system: BT-549 breast
[40] = system: SW-620 colon
[41] = system: ACHN renal
[42] = system: MOLT-4 leukemia
[43] = system: OVCAR-4 ovarian
[44] = system: SK-MEL-2 melanoma
[45] = system: MALME-3M melanoma
[46] = system: HL-60(TB) leukemia
[47] = system: OVCAR-5 ovarian
[48] = system: DU-145 prostate
[49] = system: A498 renal
[50] = system: MDA-MB-435
[51] = system: 786-0 renal
[52] = system: SK-MEL-28 melanoma
[53] = system: HCT-15 colon
[54] = system: SNB-19 CNS
[55] = system: SF-295 CNS
[56] = system: RXF 393 renal
[57] = system: KM12 colon

N#CC1=C(c2ccco2)Nc2c(c(-c3ccccc3)nn2-c2ccccc2)C12C(=O)Nc1ccc(Br)cc12 (centres undefined)
GI50 [1]: 16 µM | TGI [1]: 38 µM | GI50 [2]: 30.4 µM | TGI [2]: > 100 µM | GI50 [3]: 26.8 µM | TGI [3]: 74 µM | GI50 [4]: 19.3 µM | TGI [4]: 47.8 µM | GI50 [5]: 18 µM | TGI [5]: 33.1 µM | GI50 [6]: 17.9 µM | TGI [6]: 33.4 µM | GI50 [7]: 36.5 µM | TGI [7]: > 100 µM | GI50 [8]: 18.1 µM | TGI [8]: 34.8 µM | GI50 [9]: 20.4 µM | TGI [9]: 48.4 µM | GI50 [10]: 17.3 µM | TGI [10]: 33.1 µM | GI50 [11]: 28.1 µM | TGI [11]: > 100 µM | GI50 [12]: 16.8 µM | TGI [12]: 33.2 µM | GI50 [13]: 21.1 µM | TGI [13]: 44.4 µM | GI50 [14]: 18.1 µM | TGI [14]: 35.1 µM | GI50 [15]: 17.3 µM | TGI [15]: 34.1 µM | GI50 [16]: 28.9 µM | TGI [16]: 96.4 µM | GI50 [17]: 16.2 µM | TGI [17]: 31.6 µM | GI50 [18]: 17.2 µM | TGI [18]: 32.1 µM | GI50 [19]: 48.9 µM | TGI [19]: > 100 µM | GI50 [20]: 18.3 µM | TGI [20]: 35.2 µM | GI50 [21]: 35.9 µM | TGI [21]: > 100 µM | GI50 [22]: 18 µM | TGI [22]: 32.6 µM | GI50 [23]: 17 µM | TGI [23]: 33.5 µM | GI50 [24]: 19.3 µM | TGI [24]: 43.2 µM | GI50 [25]: 18.6 µM | TGI [25]: 36.3 µM | GI50 [26]: 21.5 µM | TGI [26]: 47.7 µM | GI50 [27]: 18 µM | TGI [27]: 33.4 µM | GI50 [28]: 20.9 µM | TGI [28]: 54.6 µM | GI50 [29]: 20.5 µM | TGI [29]: 50.6 µM | GI50 [30]: 18.5 µM | TGI [30]: 34.6 µM | GI50 [31]: 26 µM | TGI [31]: 69.3 µM | GI50 [32]: 17.4 µM | TGI [32]: 33 µM | GI50 [33]: 18.4 µM | TGI [33]: 37.8 µM | GI50 [34]: 18.3 µM | TGI [34]: 35.6 µM | GI50 [35]: 25.4 µM | TGI [35]: 69.1 µM | GI50 [36]: 18.5 µM | TGI [36]: 36.8 µM | GI50 [37]: 18.3 µM | TGI [37]: 34.2 µM | GI50 [38]: 38 µM | TGI [38]: > 100 µM | GI50 [39]: 14.6 µM | TGI [39]: 29.7 µM | GI50 [40]: 30 µM | TGI [40]: 97.6 µM | GI50 [41]: 18.7 µM | TGI [41]: 35.7 µM | GI50 [42]: 35.2 µM | TGI [42]: > 100 µM | GI50 [43]: 19.2 µM | TGI [43]: 40.7 µM | GI50 [44]: 18.1 µM | TGI [44]: 36.7 µM | GI50 [45]: 16.1 µM | TGI [45]: 29.9 µM | GI50 [46]: 53.2 µM | TGI [46]: > 100 µM | GI50 [47]: 19.1 µM | TGI [47]: 44.2 µM | GI50 [48]: 20.5 µM | TGI [48]: 40.2 µM | GI50 [49]: 16.8 µM | TGI [49]: 32.1 µM | GI50 [50]: 24.2 µM | TGI [50]: 61.5 µM | GI50 [51]: 21.3 µM | TGI [51]: 51.8 µM | GI50 [52]: 17.9 µM | TGI [52]: 33.6 µM | GI50 [53]: 18.1 µM | TGI [53]: 36.9 µM | GI50 [54]: 18.6 µM | TGI [54]: 42.2 µM | GI50 [55]: 19.6 µM | TGI [55]: 50 µM | GI50 [56]: 17.3 µM | TGI [56]: 34.5 µM | GI50 [57]: 33.2 µM | TGI [57]: > 100 µM
